Results: US20260234173A1, “STRUCTURED MOLECULAR VECTORS FOR ANTI-INFLAMMATORY COMPOUNDS AND USES THEREOF” (Universite Claude Bernard Lyon 1, priority 2019, published 2026)

Experiments:
[1] = system: Pilo-SE-induced inflammation in the hippocampus; assay: Resolution of inflammation in hippocampus following pilocarpine-induced status epilepticus (Pilo-SE); assay type: in vivo, rat; settings: 2 mg/kg i.p. after 2 h of SE, hippocampus 9 h post-SE
Description: Male Sprague-Dawley rats (Envigo, The Netherlands) were subjected to Pilo-SE at 42 days of age (185 g). SE was triggered by pilocarpine hydrochlorate (350 mg/kg, i.p.), 30 min after the administration of scopolamine methylnitrate (1 mg/kg, s.c.), used to reduce peripheral side effects of pilocarpine. After 2 h of continuous SE, rats were administered with diazepam (10 mg/kg, i.p.) to stop SE, and then immediately treated with SYN (2 mg/kg, i.p.), SYN-Pn (2 mg/kg, i.p.) in 300 μL of NaCl. Non-treated rats subjected to Pilo-SE were injected with 300 μL of NaCl (i.p.) instead of SYN or SYN-Pn. All rats received a second administration of diazepam (5 mg/kg, s.c.), 1 h after the first one, and sacrificed 9 h post-SE. The brains were collected, the hippocampus microdissected on ice, the RNA extracted and RT-qPCR performed as described above using the primer pairs shown in Table 1. The time at which rats were sacrificed was chosen based on our preliminary experiments that allowed us to determine that the peak of brain inflammation was observed 7-12 hours after the onset of SE.

[2] = system: hippocampal LTP in rats subjected to Pilo-SE; assay: Hippocampal LTP in slices from Pilo-SE rats treated in vivo (i.p. or per os); parameters: species or system rat; settings: 1 h after cessation of SE then daily
Description: In this experiment we used male Sprague-Dawley rats (ENVIGO, Netherlands). Pups were received at 14 day-old (postnatal day 14 (P14)) with their foster mother, and were maintained in groups of 10 in plastic cages (405 mm×255 mm×197 mm) with free access to food and water. All animal procedures are in accordance with the guidelines of the Animal Care and Use Committee of the University Claude Bernard Lyon 1.
All injected solutions were prepared in sterile saline (0.9% w/v). At weaning (postnatal day 20 (P20)), Sprague-Dawley male rat pups were first injected i.p. with lithium chloride (127 mg/Kg; Sigma-Aldrich), to decrease the dose of pilocarpine needed to trigger Status Epilepticus (SE). Scopolamine methylnitrate (1 mg/Kg; Sigma-Aldrich) was injected s.c. 18 h later, to alleviate peripheral cholinergic adverse side effects. Pilocarpine hydrochloride (25 mg/Kg; Sigma-Aldrich) was injected i.p. 30 min later, to induce SE. […] The rats were placed on a heated pad, under continuous observation, until they recovered from sedation. Following recovery, the rats were returned to the nursing mother until P23. Control rats only received saline injections. All rats were then housed in groups of 10 and weighed daily, during the 5 following days, to control for food intake, and then twice weekly until the end of experiment (three weeks post SE).
At P28-38, Sprague-Dawley rats were anesthetized with isoflurane, the forebrain was removed and placed in ice cold standard artificial cerebrospinal fluid (ACSF), consisting of (in mM): 124 NaCl, 5 KCl, 1.25 Na2HPO4, 2 MgSO4, 2 CaCl2), 26 NaHCO3, supplemented with 10 D-glucose, and bubbled with 95% O2 and 5% CO2. Hippocampal transverse slices were cut into 350 μm thick sections, using a vibratome (Leica VT1000S), and incubated in ACSF at room temperature for at least 1 h, before the transfer to the recording chamber. The ACSF used for perfusion was supplemented with picrotoxin (100 μM; Sigma-Aldrich), to block GABA-A receptors and therefore to facilitate the induction of NMDA receptors-dependent Long-Term Potentiation (LTP). CA1 pyramidal cells were visualized with a Zeiss Axioskop 2, equipped with a X40 objective, using infrared video microscopy and differential interference contrast optics. Whole-cell recordings from pyramidal neurons in the CA1 layer were obtained with patch electrodes, which were filled with a solution containing (in mM): 120 potassium gluconate, 20 KCl, 0.2 EGTA, 2 MgCl2, 10 HEPES, 4 Na2ATP, 0.3 Tris-GTP and 14 mM phosphocreatine (pH 7.3, adjusted with KOH). Drugs were applied in the bath of the hippocampal slices. Electrode resistances ranged from 3-5 MΩ. Series resistance was continually monitored, and experiments were discarded if it changed by >20%.
Capillary glass pipettes filled with ACSF and connected to an Iso-Flex stimulus isolation unit (A.M.P.I.) were placed in stratum radiatum, to evoke excitatory postsynaptic potentials (EPSPs) in CA1 pyramidal neurons. Cells were held at −70 mV to record EPSPs, and the stimulation strength was set to evoke EPSPs between 5-8 mV. LTP was induced by the theta burst pairing (TBP) protocol, which consisted of EPSPs paired with single back-propagating action potentials (b-APs), timed so that the b-AP (~15 ms delay) occurred at the peak of the EPSPs, as measured in the soma. A single burst contained five pairs delivered at 100 Hz and ten bursts were delivered at 5 Hz per sweep. Three sweeps were delivered at 10 s intervals for a total of 30 bursts (150 b-AP-EPSP pairs). The b-APs were elicited by direct somatic current injection (1 ms, 1-2 nA). This induction protocol was always applied within 20 min of achieving whole-cell configuration, to avoid “wash-out” of LTP.

[3] = system: hippocampal LTP in healthy rats; assay: Hippocampal LTP in slices from healthy rats treated in vivo; parameters: species or system rat; settings: 2 mg/kg i.p. each day during 7 days (P21-P27)
Description: At P28-38, Sprague-Dawley rats were anesthetized with isoflurane, the forebrain was removed and placed in ice cold standard artificial cerebrospinal fluid (ACSF), consisting of (in mM): 124 NaCl, 5 KCl, 1.25 Na2HPO4, 2 MgSO4, 2 CaCl2), 26 NaHCO3, supplemented with 10 D-glucose, and bubbled with 95% O2 and 5% CO2. Hippocampal transverse slices were cut into 350 μm thick sections, using a vibratome (Leica VT1000S), and incubated in ACSF at room temperature for at least 1 h, before the transfer to the recording chamber. The ACSF used for perfusion was supplemented with picrotoxin (100 μM; Sigma-Aldrich), to block GABA-A receptors and therefore to facilitate the induction of NMDA receptors-dependent Long-Term Potentiation (LTP). […] Series resistance was continually monitored, and experiments were discarded if it changed by >20%.
Capillary glass pipettes filled with ACSF and connected to an Iso-Flex stimulus isolation unit (A.M.P.I.) were placed in stratum radiatum, to evoke excitatory postsynaptic potentials (EPSPs) in CA1 pyramidal neurons. […] LTP was induced by the theta burst pairing (TBP) protocol, which consisted of EPSPs paired with single back-propagating action potentials (b-APs), timed so that the b-AP (~15 ms delay) occurred at the peak of the EPSPs, as measured in the soma. […]

CCC=CCC=CCC=CCC=CCC=CCC=CCCC(=O)NCCP(=O)(O)O [synaptamide phosphonate]
TNFα-mRNA induction in response to Pilo-SE [1]: significant effect
index integrating IL1β and TNFα: peak of the inflammatory response following Pilo-SE [1]: improved effect
induction of IL1β mRNA in response to Pilo-SE ([1]; 42-day-old rats): reduced
LTP magnitude (EPSP amplitude, % of baseline) ([2]; 2 mg/kg i.p.): 183.07±9.02%
LTP magnitude (EPSP amplitude, % of baseline) ([2]; 5 mg/kg i.p.): 162.4±11.9%
LTP magnitude (EPSP amplitude, % of baseline) ([2]; 10 mg/kg i.p.): 162.78±12.23%
LTP magnitude (EPSP amplitude, % of baseline) ([2]; 10 mg/kg per os): 110.7±4.7%
LTP magnitude (EPSP amplitude, % of baseline) ([2]; 30 mg/kg per os): 146.16±10%
LTP magnitude (EPSP amplitude, % of baseline) ([2]; 100 mg/kg per os): 162.6±9.2%
LTP magnitude (EPSP amplitude, % of baseline) [3]: 212.11±12.9%
